Columns and labels:
Assay type in all cases: cell-based
[1] = molecular target: T1, adenosine A2a receptor (A2aR) (Homo sapiens, UniProt P29274); assay: Inhibition of adenosine A2a receptor cAMP signaling pathway in CHO-K1/A2aR cells (HTRF cAMP dynamic 2 kit); conditions: Table 1, 20 nM ethylcarbazole
T1 construct: expressed in transfected cells; host or cells: CHO-K1
Excerpt: (§1) Test Example 1. Determination of the inhibitory activities of the compounds of the present disclosure on the adenosine A2a receptor (A2aR) cAMP signaling pathway, the adenosine A1 receptor (A1R) cAMP signaling pathway and the adenosine A3 receptor (A3R) cAMP signaling pathway.
(§2) The inhibitory activities of the compounds of the present disclosure on the adenosine A2a receptor (A2aR) cAMP signaling pathway, the adenosine A1 receptor cAMP signaling pathway and the adenosine A3 receptor cAMP signaling pathway were determined by the following methods. The experimental method is briefly described as follows:
CHO-K1/A2aR cells were cultured in DMEM/F12 medium containing 10% fetal bovine serum and 800 μg/mL Zeocin™. The cells were digested with the cell dissociation buffer during the experiment. The cells were resuspended in the HBSS buffer containing 20 mM HEPES and 0.1% bovine serum albumin and counted, and the cell density was adjusted to 10^6 cells/mL. In 384-well plates, each well was added with 5 μL of the cell suspension, and 2.5 µL of test compounds (4× concentration) formulated with the HBSS buffer containing 20 mM HEPES, 0.1% bovine serum albumin, 54 μM rolipram and 2.7 U/mL adenosine deaminase, and the plates were incubated at room temperature for 30 minutes. Each well was then added with 2.5 μL of ethylcarbazole (4× concentration) formulated with the balanced salt buffer containing 20 mM HEPES, 0.1% bovine serum albumin, 54 μM rolipram and 2.7 U/mL adenosine deaminase, and the plates were incubated at room temperature for 30 minutes. The final concentrations of the compounds were: 10000, 2000, 400, 80, 16, 3.2, 0.64, 0.128, 0.0256, 0.00512, and 0.001024 nM. The final concentration of ethylcarbazole was 20 nM. Intracellular cAMP concentration was determined with cAMP dynamic 2 kits. cAMP-d2 and Anti-cAMP—Eu-Cryptate were diluted respectively with the cAMP lysis buffer at a ratio of 1:4. Each well was added with 5 μL of the diluted cAMP-d2, followed by addition of 5 μL of the diluted Anti-cAMP—Eu-Cryptate, and the plates were incubated at room temperature in the dark for 1 hour. The HTRF signal values were read by the PHERAstar multi-function microplate reader.

[2] = molecular target: T2, adenosine A3 receptor (A3R) (Homo sapiens, UniProt P0DMS8); assay: Inhibition of adenosine A3 receptor cAMP signaling pathway in CHO-K1/A3R cells (HTRF cAMP dynamic 2 kit); conditions: Table 3; for IC50: CHO-K1/A3R cells, cAMP, 10 μM forskolin, 5 nM 2Cl-IB-MECA; for IC50 ratio (A3R/A2aR): selectivity A3R over A2aR
T2 construct: expressed in transfected cells; host or cells: CHO-K1
T2 sequence (P0DMS8 1-318): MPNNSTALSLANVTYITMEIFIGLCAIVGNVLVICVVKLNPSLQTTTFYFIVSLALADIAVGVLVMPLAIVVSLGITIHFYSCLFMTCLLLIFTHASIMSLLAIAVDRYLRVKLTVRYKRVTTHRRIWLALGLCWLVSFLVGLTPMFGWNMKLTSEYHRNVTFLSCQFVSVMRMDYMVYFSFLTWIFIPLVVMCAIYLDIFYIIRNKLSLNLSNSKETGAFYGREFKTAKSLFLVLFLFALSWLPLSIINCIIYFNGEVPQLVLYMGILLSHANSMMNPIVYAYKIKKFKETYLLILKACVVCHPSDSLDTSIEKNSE
Excerpt: as §1, §2
CHO-K1/A3R cells were cultured in DMEMIF12 medium containing 10% fetal bovine serum and 10 μg/mL puromycin. The cells were digested with the cell dissociation buffer during the experiment. The cells were resuspended in the HBSS buffer containing 20 mM HEPES and 0.1% bovine serum albumin and counted, and the cell density was adjusted to 5×10^5 cells/mL. In 384-well plates, each well was added with 12.5 μL of the cell suspension, and 6.25 μL of the test compounds (4× concentration) formulated with the HBSS buffer containing 20 mM HEPES, 0.1% bovine serum albumin, 54 μM rolipram and 2.7 U/mL adenosine deaminase, and the plates were incubated at room temperature for 30 minutes. Each well was then added with 6.25 μL of forskolin and 2Cl-IB-MECA (4× concentration) formulated with the HBSS buffer containing 20 mM HEPES, 0.1% bovine serum albumin, […] rolipram and 2.7 U/mL adenosine deaminase, and the plates were incubated at room temperature for 30 minutes. The final concentrations of the compounds were: 100000, 10000, 1000, 100, 10, 1, 0.1 and 0 nM. The final concentration of forskolin was 10 μM. The final concentration of 2Cl-IB-MECA was 5 nM. Intracellular cAMP concentration was determined with cAMP dynamic 2 kits. cAMP-d2 and Anti-cAMP—Eu-Cryptate were diluted respectively with the cAMP lysis buffer at a ratio of 1:4. Each well was added with 12.5 μL of the diluted cAMP-d2, followed by addition of 12.5 μL of the diluted Anti-cAMP—Eu-Cryptate, and the plates were incubated at room temperature in the dark for 1 hour. The HTRF signal values were read by the PHERAstar multi-function microplate reader. IC50 values for the inhibitory activities of the compounds were calculated by Graphpad Prism software, and are shown in Table 3.

[3] = molecular target: T3, adenosine A1 receptor (A1R) (Homo sapiens, UniProt P30542); assay: Inhibition of adenosine A1 receptor cAMP signaling pathway in CHO-K1/A1R cells (HTRF cAMP dynamic 2 kit); conditions: Table 2; for IC50: CHO-K1/A1R cells, cAMP, 10 μM forskolin, 10 nM CPA; for IC50 ratio (A1R/A2aR): selectivity A1R over A2aR
T3 construct: expressed in transfected cells; host or cells: CHO-K1
T3 sequence (P30542 1-326): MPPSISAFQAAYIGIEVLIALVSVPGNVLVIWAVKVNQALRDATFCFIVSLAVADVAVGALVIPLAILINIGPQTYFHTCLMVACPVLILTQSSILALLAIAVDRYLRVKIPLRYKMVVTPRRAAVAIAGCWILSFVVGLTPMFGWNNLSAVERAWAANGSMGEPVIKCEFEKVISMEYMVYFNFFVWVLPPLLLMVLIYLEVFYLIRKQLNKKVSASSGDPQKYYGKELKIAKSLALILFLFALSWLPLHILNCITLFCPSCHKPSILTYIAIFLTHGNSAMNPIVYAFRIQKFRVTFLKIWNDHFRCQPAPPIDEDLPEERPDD
Excerpt: as §1, §2
CHO-K1/A1R cells were cultured in DMEMIF12 medium containing 10% fetal bovine serum and 1 mg/mL G418. The cells were digested with the cell dissociation buffer during the experiment. The cells were then resuspended in the HBSS buffer containing 20 mM HEPES and 0.1% bovine serum albumin and counted, and the cell density was adjusted to 5×10^5 cells/mL. In 384-well plates, each well was added with 12.5 μL of the cell suspension, and 6.25 μL of the test compounds (4× concentration) formulated with the HBSS buffer containing 20 mM HEPES, 0.1% bovine serum albumin, 54 μM rolipram and 2.7 U/mL adenosine deaminase, and the plates were incubated at room temperature for 30 minutes. Each well was then added with 6.25 μL of forskolin and N6-cyclopentyladenosine (4× concentration) formulated with the HBSS buffer containing 20 mM HEPES, 0.1% bovine serum albumin, 54 μM rolipram and 2.7 U/mL adenosine deaminase, and the plates were incubated at room temperature for 30 minutes. The final concentrations of the compounds were: 100000, 10000, 1000, 100, 10, 1, 0.1 and 0 nM. The final concentration of forskolin was 10 μM. The final concentration of CPA was 10 nM. Intracellular cAMP concentration was determined with cAMP dynamic 2 kits. cAMP-d2 and Anti-cAMP—Eu-Cryptate were diluted respectively with the cAMP lysis buffer at a ratio of 1:4. Each well was added with 12.5 μL of the diluted cAMP-d2, followed by addition of 12.5 μL of the diluted Anti-cAMP—Eu-Cryptate, and the plates were incubated at room temperature in the dark for 1 hour. The HTRF signal values were read by the PHERAstar multi-function microplate reader.

T1 sequence (P29274 whole entry): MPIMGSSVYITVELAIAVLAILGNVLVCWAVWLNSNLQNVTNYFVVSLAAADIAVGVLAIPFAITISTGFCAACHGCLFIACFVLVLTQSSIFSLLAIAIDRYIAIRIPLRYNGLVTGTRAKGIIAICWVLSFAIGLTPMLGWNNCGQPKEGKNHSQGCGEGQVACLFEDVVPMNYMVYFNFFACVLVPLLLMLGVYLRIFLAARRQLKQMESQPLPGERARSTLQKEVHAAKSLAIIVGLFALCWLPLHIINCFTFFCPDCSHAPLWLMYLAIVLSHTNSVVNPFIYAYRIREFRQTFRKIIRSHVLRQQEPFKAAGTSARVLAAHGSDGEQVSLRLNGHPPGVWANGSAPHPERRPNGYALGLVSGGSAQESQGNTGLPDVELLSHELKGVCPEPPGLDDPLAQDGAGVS

Row | IC50 [1] | IC50 [2] | IC50 ratio (A3R/A2aR) [2] | IC50 [3] | IC50 ratio (A1R/A2aR) [3] | Compound
1 | 0.14 nM | > 10000 nM | >10^4 | – | – | Cc1ccc(-c2nc(N)nc3c(Cc4ccccc4F)cnn23)o1 [Example 4, 8-(2-Fluorobenzyl)-4-(5-methylfuran-2-yl)pyrazolo[1,5-a][1,3,5]triazin-2-amine]
2 | 3.53 nM | – | – | – | – | Cc1ccc(-c2nc(N)nc3c(Nc4ccccc4F)cnn23)o1 [Example 31, N^8-(2-Fluorophenyl)-4-(5-methylfuran-2-yl)pyrazolo[1,5-a][1,3,5]triazine-2,8-diamine]
3 | 0.68 nM | 1390 nM | >10^3 | 293 nM | 431^ | Cc1ccc(-c2nc(N)nc3c(Cc4cccc(COCCF)n4)cnn23)o1 [Example 14, 8-((6-((2-Fluoroethoxy)methyl)pyridin-2-yl)methyl)-4-(5-methylfuran-2-yl)pyrazolo[1,5-a][1,3,5]triazin-2-amine]
4 | 1.64 nM | 3370 nM | >10^3 | 483 nM | 294^ | Cc1ccc(-c2nc(N)nc3c(Cc4cccc(CN5CC6COCC6C5)n4)cnn23)o1 (centres unmarked) [Example 9, 4-(5-Methylfuran-2-yl)-8-((6-((tetrahydro-1H-furo[3,4-c]pyrrol-5(3H)-yl)methyl)pyridin-2-yl)methyl)pyrazolo[1,5-a][1,3,5]triazin-2-amine]
5 | 0.72 nM | 1390 nM | >10^3 | – | – | Cc1ccc(-c2nc(N)nc3c(Cc4cccc(COCC5CC5)n4)cnn23)o1 [Example 17, 8-((6-((Cyclopropylmethoxy)methyl)pyridin-2-yl)methyl)-4-(5-methylfuran-2-yl)pyrazolo[1,5-a][1,3,5]triazin-2-amine]
6 | 1.18 nM | 7370 nM | >10^3 | 340 nM | 288^ | Cc1ccc(-c2nc(N)nc3c(Cc4cccc(CN5CC6(COC6)C5)n4)cnn23)o1 [Example 7, 8-((6-((2-Oxa-6-azaspiro[3.3]heptan-6-yl)methyl)pyridin-2-yl)methyl)-4-(5-methylfuran-2-yl) pyrazolo[1,5-a][1,3,5]triazin-2-amine]
7 | 1.7 nM | 5500 nM | >10^3 | 1230 nM | 725^ | COCc1cccc(Cc2cnn3c(-c4ccc(C)o4)nc(N)nc23)n1 [Example 13, 8-((6-(Methoxymethyl)pyridin-2-yl)methyl)-4-(5-methylfuran-2-yl)pyrazolo[1,5-a][1,3,5]triazin-2-amine]
8 | 1.9 nM | 977 nM | 514^ | 286 nM | 150^ | Cc1ccc(-c2nc(N)nc3c(Nc4cccc(CN5CCOCC5)n4)cnn23)o1 [Example 27, 4-(5-Methylfuran-2-yl)-N^8-(6-(morpholinomethyl)pyridin-2-yl)pyrazolo[1,5-a][1,3,5]triazine-2,8-diamine]
9 | 4.14 nM | – | – | 565 nM | 136^ | Nc1nc(-c2ccco2)n2ncc(Cc3ccccc3)c2n1 [Example 33, 8-Benzyl-4-(furan-2-yl)pyrazolo[1,5-a][1,3,5]triazin-2-amine]
10 | 2.8 nM | 2180 nM | 779^ | 3690 nM | >10^3 | Cc1ccc(-c2nc(N)nc3c(Nc4cccc(CN5CCN(C)CC5)n4)cnn23)o1 [Example 29, 4-(5-Methylfuran-2-yl)-N^8-(6-((4-methylpiperazin-1-yl)methyl)pyridin-2-yl)pyrazolo[1,5-a][1,3,5]triazine-2,8-diamine]
11 | 4.64 nM | – | – | – | – | Nc1nc(-c2ccco2)n2ncc(Cc3cccc(F)c3)c2n1 [Example 34, 8-(3-Fluorobenzyl)-4-(furan-2-yl)pyrazolo[1,5-a][1,3,5]triazin-2-amine]
12 | 1.71 nM | 358 nM | 209^ | 147 nM | 86^ | Nc1nc(-c2ccco2)n2ncc(Cc3ccccc3F)c2n1 [Example 10, 8-(2-Fluorobenzyl)-4-(furan-2-yl)pyrazolo[1,5-a][1,3,5]triazin-2-amine]
13 | 0.09 nM | 280 nM | >10^3 | – | – | CCCc1cccc(Cc2cnn3c(-c4ccc(C)o4)nc(N)nc23)n1 [Example 20, 4-(5-Methylfuran-2-yl)-8-((6-propylpyridin-2-yl)methyl)pyrazolo[1,5-a][1,3,5]triazin-2-amine]
14 | 1.86 nM | – | – | 410 nM | 220^ | Cc1ccc(-c2nc(N)nc3c(Cc4cccc(COS(N)(=O)=O)n4)cnn23)o1 [Example 11, (6-((2-Amino-4-(5-methylfuran-2-yl)pyrazolo[1,5-a][1,3,5]triazin-8-yl)methyl)pyridin-2-yl)methyl sulfamate]
15 | 0.58 nM | – | – | – | – | Cc1ccc(-c2nc(N)nc3c(Oc4ccccn4)cnn23)o1 [Example 23, 4-(5-Methylfuran-2-yl)-8-(pyridin-2-yloxy)pyrazolo[1,5-a][1,3,5]triazin-2-amine]

From patent US20210032253A1, “PYRAZOLO[1,5-A][1,3,5]TRIAZINE-2-AMINE DERIVATIVE, PREPARATION METHOD THEREFOR AND MEDICAL USE THEREOF” (JIANGSU HENGRUI MEDICINE CO., LTD., priority 2018, published 2021)
